{"source": "paper PMC8072159", "about": "“5-Bis-(2,6-difluoro-benzylidene) Cyclopentanone Acts as a Selective 11β-Hydroxysteroid Dehydrogenase one Inhibitor to Treat Diet-Induced Nonalcoholic Fatty Liver Disease in Mice” (Frontiers in Pharmacology, 2021)", "key": {"11β-HSD2": {"molecular_target": "T1, 11β-HSD2 (Homo sapiens, UniProt P80365)", "T1 construct": "purchased Gentest (Woburn, MA); host or cells: human kidney microsomes (tissue)", "T1 sequence (P80365 1-405)": "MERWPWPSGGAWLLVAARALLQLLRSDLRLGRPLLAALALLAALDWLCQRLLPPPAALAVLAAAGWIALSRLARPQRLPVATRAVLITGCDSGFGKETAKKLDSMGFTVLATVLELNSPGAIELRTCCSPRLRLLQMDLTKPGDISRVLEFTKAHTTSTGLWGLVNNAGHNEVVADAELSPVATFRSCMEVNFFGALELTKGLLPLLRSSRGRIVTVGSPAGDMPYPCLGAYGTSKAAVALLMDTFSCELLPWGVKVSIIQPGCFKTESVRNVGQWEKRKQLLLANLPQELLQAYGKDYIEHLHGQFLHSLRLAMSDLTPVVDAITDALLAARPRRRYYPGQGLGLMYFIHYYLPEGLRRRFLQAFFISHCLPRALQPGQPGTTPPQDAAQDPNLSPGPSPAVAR", "test": "11β-HSD2 activity in human kidney microsomes", "format": "biochemical", "settings": "100 μM", "experimental": "Measurement of 11β-HSD2 Activity in Rat, Mouse, and Human Kidney Microsomes\nThe 11β-HSD2 assay was based on rat, mouse, and human kidney microsomes, as previously described ([Ge et al., 2005]). In brief, the 11β-HSD2 activity assay tube contained 25 nM substrate (cortisol for humans, CORT for rats and mice). Renal microsomes (10 μg) were incubated with substrate and 0.2 mM NAD^+ for 30 min. Other procedures were described above. The percentage conversion of cortisol to cortisone (humans) or CORT to 11DHC (rats and mice) was calculated by dividing the radioactive count of an 11keto-steroid product by the total count associated with both substrate and product."}, "HFD-induced NAFLD mice": {"system": "HFD-induced NAFLD mice", "test": "HFD-induced NAFLD mouse model, WZS08 by gavage for 100 days", "format": "in vivo", "settings": "for Body weight / Dorsal adipose weight / Epididymal adipose weight / Mesenteric adipose weight / Thymic adipose weight / Total hepatic weight: mean ± SEM", "experimental": "The KM mice were randomly divided into six groups, including a regular chow (Group C), HFD (Group M) as a model control group, HFD supplemented with various doses of WZS08, 1 (Group M + W1), 2 (Group M + W2), and 4 (Group + W4) mg/kg, 20 mice per group. Mice were housed five animals per cage. Mice were maintained at a constant temperature (25 ± 3°C) for a 12-h light-dark cycle with free access to food and water. After a week of diet adaptation, the mice were fed with WZS08 dissolved in 1% sodium carboxymethyl cellulose (CMC-Na) or 1% CMC-Na for 100 days alone. Each mouse was gavaged daily with 0.5 ml vehicle (1% CMC-Na) or drug in 1%CMC-Na. By the end of the treatment, the mice were killed by CO2, and the weights of body, liver, epididymal fat, mesenteric fat, and dorsal fat were measured. […]\nQuantitative Real-Time Polymerase Chain Reaction\nTotal RNA was isolated from mouse liver using Trizol kit according to the manufacturer’s instruction. To reduce genomic DNA contamination, total RNAs were treated with ribonuclease-free deoxyribonuclease I (Thermo Fisher Scientific, Waltham, MA, United States) for 1 h at 37°C. 1 μg RNA was used to synthesize the first strand cDNA by reverse transcription kit. qPCR was carried out using SYBR GREEN as an indicator using Bio-Rad real time PCR system. The standard curve method was adopted as previously described ([Lv et al., 2019]). The Ct values were recorded after a series of diluted standards of mouse liver cDNAs, and the linear equation of Ct values vs. logarithm [dilution of standards] was generated, and the concentration of the target mRNA was calculated according to their Ct value. The result was normalized to Gapdh (encoding GAPDH) and Rps16 as the internal controls. The mRNA levels of Acs2 (encoding acetyl-CoA synthetase2), Hsd11b1 (encoding 11β–HSD1), Ldlr (encoding LDLR), Plin2 (encoding PLIN2), and Plin3 (encoding PLIN3) were evaluated. There were no changes in Gapdh and Rps16 mRNA levels between groups and the test mRNA levels were adjusted to Gapdh. Primer information is listed in Supplementary Table S1.\nMeasurement of Serum Insulin and Corticosterone Levels and Blood Lipid Levels\nOn the last day of the experiment, the mice were fasted for 6 h (with free access to drinking water), and then blood and tissues were sampled. Blood samples were collected. The blood sample was centrifuged at 5000 rpm for 10 min to collect the serum, and the serum was frozen at -40°C until use. According to standard clinical protocols, the levels of serum glucose, low-density lipoprotein (LDL), high-density lipoprotein (HDL), total cholesterol, and triglyceride (TG) were measured using Hitachi 7600 biochemical analyzer (Hitachi, Japan). In addition, serum insulin and corticosterone levels were evaluated using the ultrasensitive mouse insulin ELISA kit (CrystalChem, IL, USA) and the commercially available corticosterone ELISA kit (Abnova, Taiwan, China) according to the manufacturers’ instructions.\nProtein Expression Analysis\nTotal hepatic protein extract was obtained as previously described ([Lazaro et al., 2013]). The protein was separated by SDS–PAGE and transferred to a 0.2 μm PVDF membrane. The primary antibodies used were: 11β-HSD1 (rabbit polyclonal antibody, Abcam, catalog # ab39364; being blocked with 11β-HSD1 peptide, #ab101097, San Francisco, CA), ACS2 (Abcam, catalog # ab229958, San Francisco, CA, United States), and β-actin (ACTB, Cell signaling, Danvers, MA, United States). Goat anti-rabbit HRP was used as a secondary antibody. Finally, chemiluminescence emitted by the immunoreactive protein was detected by an ECL advance agent, and visualized with a MicroChemi Imaging system and qualified by a densitometry using AlphaEaseFC (ProteinSample, CA, United States). Relative protein levels were normalized by ACTB.\nBefore hematoxylin and eosin (HE) staining, the livers of KM mice were fixed in 10% formalin, dehydrated, and embedded in paraffin, as previously described ([Andres-Manzano et al., 2015]). […]"}, "[1]": {"settings": "HFD mice, 4 mg/kg (M + W4), 100 days"}, "[2]": {"settings": "HFD mice, 1, 2, and 4 mg/kg, vs Group M, qPCR"}, "[3]": {"settings": "HFD plus 1 mg/kg WZS08 (M + W1), 100 days"}, "[4]": {"settings": "HFD plus 2 mg/kg WZS08 (M + W2), 100 days"}, "[5]": {"settings": "HFD plus 4 mg/kg WZS08 (M + W4), 100 days"}}, "note": "Entries after “also recorded” stand apart in the source; their conditions may differ."}
{"smiles": "O=C1/C(=C/c2c(F)cccc2F)CC/C1=C\\c1c(F)cccc1F", "note": "[WZS08, (2E,5E)-2,5-bis(2,6-difluorobenzylidene) Cyclopentanone]", "values": [{"measurement": "effect on 11β-HSD2 activity, human", "setting": "11β-HSD2", "result": "did not affect; also recorded: almost no effect"}, {"measurement": "Fabp4 expression", "setting": "HFD-induced NAFLD mice; HFD mice, 1 mg/kg, 100 days", "result": "up-regulated"}, {"measurement": "hepatic fat ratio", "setting": "HFD-induced NAFLD mice; HFD mice, 1 mg/kg, 100 days", "result": "significantly reduced"}, {"measurement": "serum cholesterol", "setting": "HFD-induced NAFLD mice; HFD mice, 1 mg/kg, 100 days", "result": "significantly reduced"}, {"measurement": "serum low-density lipoprotein", "setting": "HFD-induced NAFLD mice; HFD mice, 1 mg/kg, 100 days", "result": "significantly reduced"}, {"measurement": "serum triglycerides", "setting": "HFD-induced NAFLD mice; HFD mice, 1 mg/kg, 100 days", "result": "significantly reduced"}, {"measurement": "serum HDL level", "setting": "HFD-induced NAFLD mice; [1]", "result": "greatly reduced"}, {"measurement": "serum LDL level", "setting": "HFD-induced NAFLD mice; [1]", "result": "greatly reduced"}, {"measurement": "serum cholesterol level", "setting": "HFD-induced NAFLD mice; [1]", "result": "greatly reduced"}, {"measurement": "serum triglyceride level", "setting": "HFD-induced NAFLD mice; [1]", "result": "greatly reduced"}, {"measurement": "insulin index", "setting": "HFD-induced NAFLD mice; HFD mice, 4 mg/kg, 100 days, vs HFD group", "result": "significantly lowered"}, {"measurement": "serum insulin levels", "setting": "HFD-induced NAFLD mice; HFD mice, 4 mg/kg, 100 days, vs HFD group, 4 mg/kg", "result": "significantly lowered; also recorded: completely reduced it to control level"}, {"measurement": "liver lipid content (HE staining)", "setting": "HFD-induced NAFLD mice; HFD mice, 1, 2, 4 mg/kg", "result": "remarkably reduced"}, {"measurement": "insulin resistance (HOMA-IR)", "setting": "HFD-induced NAFLD mice; HFD mice, 1, 2, 4 mg/kg, 100 days", "result": "dose-dependently reduced"}, {"measurement": "body weight changes", "setting": "HFD-induced NAFLD mice; HFD mice, 1, 2, 4 mg/kg, 100 days, vs HFD control", "result": "dose-dependently reduced"}, {"measurement": "Acs2 expression in liver", "setting": "HFD-induced NAFLD mice; [2]", "result": "up-regulated"}, {"measurement": "Plin2 expression in liver", "setting": "HFD-induced NAFLD mice; [2]", "result": "down-regulated"}, {"measurement": "morphology of the non-alcoholic fatty liver", "setting": "HFD-induced NAFLD mice; HFD mice, 100 days", "result": "significantly improved"}, {"measurement": "liver fat content", "setting": "HFD-induced NAFLD mice; HFD mice, doses of 2 and 4 mg/kg", "result": "significantly decreased"}, {"measurement": "Plin2 expression", "setting": "HFD-induced NAFLD mice; HFD mice, liver, 1 mg/kg, 100 days", "result": "down-regulated"}, {"measurement": "Body weight", "setting": "HFD-induced NAFLD mice; [3]", "result": "52.46 ± 1.28", "unit": "g"}, {"measurement": "Dorsal adipose weight", "setting": "HFD-induced NAFLD mice; [3]", "result": "0.68 ± 0.092", "unit": "g"}, {"measurement": "Epididymal adipose weight", "setting": "HFD-induced NAFLD mice; [3]", "result": "2.05 ± 0.230", "unit": "g"}, {"measurement": "Mesenteric adipose weight", "setting": "HFD-induced NAFLD mice; [3]", "result": "0.64 ± 0.074", "unit": "g"}, {"measurement": "Thymic adipose weight", "setting": "HFD-induced NAFLD mice; [3]", "result": "0.08 ± 0.01", "unit": "g"}, {"measurement": "Total hepatic weight", "setting": "HFD-induced NAFLD mice; [3]", "result": "2.79 ± 0.12", "unit": "g"}, {"measurement": "Body weight", "setting": "HFD-induced NAFLD mice; [4]", "result": "50.25 ± 1.01", "unit": "g"}, {"measurement": "Dorsal adipose weight", "setting": "HFD-induced NAFLD mice; [4]", "result": "0.54 ± 0.049", "unit": "g"}, {"measurement": "Epididymal adipose weight", "setting": "HFD-induced NAFLD mice; [4]", "result": "1.52 ± 0.138", "unit": "g"}, {"measurement": "Mesenteric adipose weight", "setting": "HFD-induced NAFLD mice; [4]", "result": "0.55 ± 0.043", "unit": "g"}, {"measurement": "Thymic adipose weight", "setting": "HFD-induced NAFLD mice; [4]", "result": "0.06 ± 0.00", "unit": "g"}, {"measurement": "Total hepatic weight", "setting": "HFD-induced NAFLD mice; [4]", "result": "2.48 ± 0.06", "unit": "g"}, {"measurement": "Body weight", "setting": "HFD-induced NAFLD mice; [5]", "result": "49.00 ± 1.22", "unit": "g"}, {"measurement": "Dorsal adipose weight", "setting": "HFD-induced NAFLD mice; [5]", "result": "0.55 ± 0.070", "unit": "g"}, {"measurement": "Epididymal adipose weight", "setting": "HFD-induced NAFLD mice; [5]", "result": "1.54 ± 0.20", "unit": "g"}, {"measurement": "Mesenteric adipose weight", "setting": "HFD-induced NAFLD mice; [5]", "result": "0.54 ± 0.048", "unit": "g"}, {"measurement": "Thymic adipose weight", "setting": "HFD-induced NAFLD mice; [5]", "result": "0.077 ± 0.00", "unit": "g"}, {"measurement": "Total hepatic weight", "setting": "HFD-induced NAFLD mice; [5]", "result": "2.29 ± 0.06", "unit": "g"}, {"measurement": "blood glucose", "setting": "HFD-induced NAFLD mice; HFD-treated mice, oral administration", "result": "did not show significant changes"}]}
